PMC6930638, “The Masked Polar Group Incorporation (MPGI) Strategy in Drug Design: Effects of Nitrogen Substitutions on Combretastatin and Isocombretastatin Tubulin Inhibitors” (Molecules, 2019)
≈ marks a conversion by molar mass, not a printed value.

Assays:
[1] = Aqueous solubility determination (shake flask, UV); type: physicochemical; details: phosphate buffer, pH 7, aqueous buffer, thermodynamic from solid, phosphate buffer pH 7.0, 48 h stirring, filtered, UV; read-out: Solub.
Procedure: One of the expected effects of introducing nitrogen substitutions on combretastatin and isocombretastatin analogues, is an increase in aqueous solubility. Solubility was spectrophotometrically determined in phosphate buffer at pH 7. UV absorbance of soluble compounds was measured after shaking and microfiltration. […] In addition, aqueous solubilities of the corresponding ammonium salts are over 1 mg/mL.
This great improvement is probably due to the symmetry reduction, combined with an increased polarity for 2g.
Compounds were stirred in a solution of phosphate buffer at pH 7.0 (1–2 mg of compound in 300 µL of buffer) during 48 h. After that, the samples were filtered over a […] filter to discard the insoluble residues. In order to determine the maximum wavelength of absorbance for each compound, a scan between 270 and 400 nm was performed. Once the wavelength was selected, a calibration line was performed and the concentration of the stirred and filtered samples was measured.

[2] = system: HeLa cervix epithelioid carcinoma; assay: MTT cell antiproliferative assay, HeLa; type: cell-based; details: Homo sapiens, 72 h
[3] = system: HT-29 colon adenocarcinoma; assay: MTT cell antiproliferative assay, HT-29 (without or with verapamil); type: cell-based, human; details: Homo sapiens, HT-29; MTT, 72 h
[4] = system: MCF-7 breast adenocarcinoma; assay: MTT cell antiproliferative assay, MCF-7; type: cell-based; details: Homo sapiens, MCF7, 72 h
[5] = system: rat primary pancreatic cells; assay: Toxicity against rat primary pancreatic cells (MTT); details: for live cells with respect to the non-treated control (means ± S.E.M.): rat, 7 h, pH 7.4
Procedure: The toxicity of the compounds against rat primary pancreatic cells was evaluated by the MTT protocol (Table 2). […] Sodium taurocholate (NaTc) was also used at high concentrations as a model of acute pancreatitis in vitro.
Rat primary pancreatic cells were isolated as previously described. Afterwards, pancreatic cells were resuspended in Na-HEPES solution (pH 7.4) containing 14 mM glucose, 1% essential amino acid mixture, 1% (w/v) BSA, 0.01% (w/v) STI, 0.5 mM CaCl2 and incubated (5% CO2, at 37 °C) for 7 h in the absence (non-treated control) or the presence of compounds at different concentrations. After the treatment, cells were incubated (5% CO2, at 37 °C) with 0.5 mg/mL MTT for 2 h and the formazan crystals were solubilized with DMSO (v/v). The optical density was read at 570 nm with a reference wavelength of 630 nm. Non-treated cell viability was set as 100%.

Compound	solubility at 48 h [1]	IC50 [2]	IC50 [3]	IC50 [4]	toxicity against primary pancreatic cultured cells [5]	live cells with respect to the non-treated control (means ± S.E.M.) ([5]; 0.25 µM)	live cells with respect to the non-treated control (means ± S.E.M.) ([5]; 0.5 µM)
COc1cc(C(=O)c2ccnc(N3CCCC3)c2)cc(OC)c1OC [Compound 1h, (2-(Pyrrolidin-1-yl)pyridin-4-yl)(3,4,5-trimethoxyphenyl)methanone]	20 µg/mL (≈ 58.4 µM)	18 nM	71 nM	17 nM	very low toxicity	103.84 ± 9.20%	102.59 ± 14.73%
COc1cc(C=Cc2ccc(N(C)C)nc2)cc(OC)c1OC [Compound 8b, N,N-dimethyl-5-(3,4,5-trimethoxystyryl)pyridin-2-amine]	44 µg/mL (≈ 140 µM)	57 nM	78 nM	63 nM	very low toxicity	94.31 ± 11.83%	91.65 ± 13.88%
C=C(c1ccc(N(C)C)nc1)c1cc(OC)c(OC)c(OC)c1 [Compound 3b, N,N-Dimethyl-5-(1-(3,4,5-trimethoxyphenyl)vinyl)pyridin-2-amine]	13.5 µg/mL (≈ 42.9 µM)	150 nM	277 nM	81 nM	very low toxicity	112.81 ± 19.30%	94.06 ± 13.13%
COc1cc(C(=O)c2cccc(N(C)C)c2)cc(OC)c1OC [Compound 1f, (3-(Dimethylamino)phenyl)(3,4,5-trimethoxyphenyl)methanone]	11 µg/mL (≈ 34.9 µM)	180 nM	460 nM	320 nM	very low toxicity	106.59 ± 17.60%	95.97 ± 10.55%
